How the values were obtained:
hCAII [1] = biological target: T1, hCAII (Homo sapiens, UniProt P00918); assay: hCAII activity assay; format: biochemical
[2] = tested on: matrix metalloproteinases; settings: cited from earlier work
hCAII [3] = biological target: T1, hCAII; settings: aliphatic thiols; cited from earlier work

In the case of `[O-][n+]1ccccc1S` [1,2-HOPTO, 1-hydroxypyridine-2-(1H)-thione], the “fold more potent than 1,2-HOPO” value (hCAII [1]; against hCAII) is given as roughly 50 fold and the “fold more potent than 1,2-HOPO” value [2] is given as roughly 50 fold.

In the case of `OCCS` [2-mercaptoethanol], the “inhibitory activity against hCAII (in words)” value (hCAII [3]) is listed as “lack inhibitory activity”.

In the case of `Cc1cccn(O)c1=S` [3-CH3-1,2-HOPTO], the “fold increase in potency over unsubstituted 1,2-HOPTO” value (hCAII [1]; against hCAII) was greater than 10 fold.

In the case of `Cc1cc(C)n(O)c(=S)c1` [4,6-CH3-1,2-HOPTO], the “fold decrease in potency/affinity relative to 4-CH3-1,2-HOPTO” value (hCAII [1]; against hCAII) was greater than 20 fold.

For `Cc1ccnc(S)c1` [4-CH3-2MPyr, 2-Mercapto-4-methylpyridine], the “fold decrease in potency/affinity relative to 4-CH3-1,2-HOPTO” value (hCAII [1]; against hCAII) was roughly 200 fold.

With `On1c(C(F)(F)F)cccc1=S` [6-CF3-1,2-HOPTO] the “inhibition of hCAII (in words)” value (hCAII [1]) was “all activity is lost”.

For `Cc1cccc(=S)n1O` [6-CH3-1,2-HOPTO], the “fold decrease in potency relative to 1,2-HOPTO” value (hCAII [1]; against hCAII) was 5 fold.
